Experimental data taken from ChEMBL document CHEMBL1201862, “PubChem BioAssay data set” (2004).
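Compound exposure: 48 hours, 5 concentrations, 96-well plates. Here, GI50 denotes the concentration required for 50% inhibition of growth.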 Calls of active or inactive are those of the source. Rule as the data show it: active = GI50 up to about 1.1 µM and inactive = higher.

Assays:
Experiment in all cases: inhibition of tumour cell growth, NCI panel, 48 h
[1] = system: SF-268
[2] = system: KM12
[3] = system: SNB-75
[4] = system: TK-10
[5] = system: A549
[6] = system: NCI-H460
[7] = system: SK-MEL-2
[8] = system: SK-OV-3
[9] = system: A498
[10] = system: UO-31
[11] = system: Malme-3M
[12] = system: U-251
[13] = system: SF-539
[14] = system: UACC-257
[15] = system: K562
[16] = system: M14

Measured: GI50

C1CN2CCO[SiH](O1)OCC2
inactive: [1] > 100 µM | [2] > 100 µM | [3] > 100 µM | [4] > 100 µM | [5] > 100 µM | [6] > 100 µM | [7] > 100 µM | [8] > 100 µM | [9] > 100 µM | [10] > 100 µM | [11] > 100 µM | [12] > 100 µM | [13] > 100 µM | [14] > 100 µM | [15] > 100 µM

COc1ccc(/N=N/c2c(N)nn(C)c2N)cc1
inactive: [1] > 100 µM | [2] > 100 µM | [3] 51.6 µM | [4] > 100 µM | [5] > 100 µM | [6] > 100 µM | [7] > 100 µM | [8] > 100 µM | [9] > 100 µM | [10] > 100 µM | [11] > 100 µM | [12] > 100 µM | [16] > 100 µM | [13] > 100 µM | [14] > 100 µM | [15] > 100 µM

O=C1N=C(Nc2ccccc2Cl)SC1C(=O)Nc1ccc([N+](=O)[O-])cc1[N+](=O)[O-] (centres undefined)
inactive: [1] > 100 µM | [2] > 100 µM | [3] 66.1 µM | [4] 51.6 µM | [5] > 100 µM | [6] > 100 µM | [7] > 100 µM | [8] > 100 µM | [9] > 100 µM | [10] 72.4 µM | [11] > 100 µM | [12] > 100 µM | [16] > 100 µM | [13] > 100 µM | [14] > 100 µM | [15] > 100 µM

O=C1C2=C(c3ccccc31)C(c1ccc(Cl)cc1)N1C(=O)CCSC1=N2 (centres undefined)
inactive: [1] > 100 µM | [2] 99.5 µM | [3] 43.2 µM | [4] > 100 µM | [5] 69.3 µM | [7] > 100 µM | [8] > 100 µM | [9] > 100 µM | [10] 42.9 µM | [11] 89.3 µM | [12] > 100 µM | [16] > 100 µM | [13] > 100 µM | [14] > 100 µM | [15] 81.1 µM

CCCCCC(/C=C/[C@@H]1[C@H]2CC(=O)O[C@H]2C[C@H]1N1CCOCC1)OC1CCCO1 (some centres undefined)
inactive: [1] > 100 µM | [2] > 100 µM | [3] > 100 µM | [4] > 100 µM | [5] > 100 µM | [6] > 100 µM | [7] > 100 µM | [8] > 100 µM | [9] > 100 µM | [10] > 100 µM | [11] > 100 µM | [12] > 100 µM | [16] > 100 µM | [13] > 100 µM | [14] > 100 µM | [15] > 100 µM

CC(=O)Nc1ccc(S(=O)(=O)Nc2cnc3ccccc3n2)cc1
inactive: [1] > 100 µM | [2] > 100 µM | [3] 63.5 µM | [4] > 100 µM | [5] > 100 µM | [6] > 100 µM | [7] > 100 µM | [8] > 100 µM | [9] > 100 µM | [10] > 100 µM | [11] > 100 µM | [12] > 100 µM | [16] > 100 µM | [13] > 100 µM | [14] > 100 µM | [15] > 100 µM

Cc1ccc(C)c(NC(=O)CC/C(=N\NC(=O)C(=O)NN)C(C)C(=O)c2ccc(O)cc2)c1 (centres undefined)
inactive: [1] > 100 µM | [2] > 100 µM | [3] > 100 µM | [4] > 100 µM | [5] > 100 µM | [6] > 100 µM | [7] > 100 µM | [8] > 100 µM | [9] > 100 µM | [10] > 100 µM | [11] > 100 µM | [12] > 100 µM | [16] > 100 µM | [13] > 100 µM | [14] > 100 µM | [15] > 100 µM

Cn1c2cc(O)cc(O)c2c(=O)c2c([N+](=O)[O-])cccc21
inactive: [1] > 100 µM | [2] > 100 µM | [3] > 100 µM | [4] > 100 µM | [5] > 100 µM | [6] > 100 µM | [7] > 100 µM | [8] > 100 µM | [9] > 100 µM | [10] > 100 µM | [11] > 100 µM | [12] > 100 µM | [16] > 100 µM | [13] > 100 µM | [14] > 100 µM | [15] > 100 µM

COC(=O)/C(=N\Nc1nc(S)nn1N)C(C#N)c1ccccc1 (centres undefined)
inactive: [1] > 100 µM | [2] > 100 µM | [3] > 100 µM | [4] > 100 µM | [5] > 100 µM | [6] > 100 µM | [7] > 100 µM | [8] > 100 µM | [9] > 100 µM | [10] > 100 µM | [11] > 100 µM | [12] > 100 µM | [16] > 100 µM | [14] > 100 µM | [15] > 100 µM

CCOc1ccc(NCC2CC/C(=C\c3ccccc3OC)C2=O)cc1 (centres undefined)
inactive: [1] 7.29 µM | [2] 2.99 µM | [3] 14.6 µM | [4] 13.8 µM | [5] 17.9 µM | [7] 20.3 µM | [8] 17 µM | [9] 19.6 µM | [10] 13.4 µM | [11] 14.4 µM | [12] 14.3 µM | [16] 3.64 µM | [13] 10.3 µM | [14] 7.38 µM | [15] 2.7 µM

NCCOCn1cc(Cc2cccc(OCc3ccccc3)c2)c(=O)[nH]c1=O
inactive: [2] > 100 µM | [3] 79.8 µM | [4] > 100 µM | [5] > 100 µM | [6] 63.5 µM | [7] > 100 µM | [8] > 100 µM | [9] > 10 µM | [10] > 100 µM | [12] > 100 µM | [16] > 100 µM | [13] > 100 µM | [15] 42.8 µM

CC(C)CS(=O)(=O)/C(=C(\c1ccc(Br)cc1)S(=O)(=O)CC(C)C)c1ccc(Br)cc1
inactive: [1] > 100 µM | [2] > 100 µM | [3] 38.3 µM | [4] > 100 µM | [5] > 100 µM | [6] > 100 µM | [7] > 100 µM | [9] 16.3 µM | [10] > 100 µM | [11] > 100 µM | [12] > 100 µM | [16] > 100 µM | [13] > 100 µM | [14] > 100 µM | [15] > 100 µM

N#Cc1c(-c2ccco2)cc(-c2ccc(NCc3nc4ccccc4[nH]3)cc2)nc1N
inactive: [1] 30.1 µM | [2] 18.7 µM | [3] 26.4 µM | [4] 26.4 µM | [5] 29.8 µM | [6] 18.1 µM | [7] 20.3 µM | [8] 50.5 µM | [9] 25 µM | [10] 16.6 µM | [11] 24.5 µM | [12] 25.9 µM | [16] 19.5 µM | [13] 19.5 µM | [15] 24.3 µM
